Experimental data reported in patent US20240308998A1, “PYRROLOPYRIDONE DERIVATIVES USEFUL IN THE TREATMENT OF CANCER” (Tay Therapeutics Limited, priority 2021, published 2024).

Columns and labels:
BRD4 BD2 = target: T1, BRD4 BD2 (Homo sapiens, UniProt O60885); assay: NanoBRET bromodomain assay, BRD4 BD2; assay type: cell-based; conditions: for Fold selectivity BRD4 BD1/BD2: IC50 BD1/IC50 BD2; for IC50: NanoBRET, HEK293 cells transfected with NanoLuc-BRD4-BD2
T1 construct: HEK293 cells were transfected using NanoLuc-BRD4-BD1 or NanoLuc-BRD4-BD2 fusion vectors; host or cells: HEK293
Experimental: (§1) HEK293 cells were transfected using NanoLuc-BRD4-BD1 or NanoLuc-BRD4-BD2 fusion vectors and incubated at 37° C. in an atmosphere of 5% CO2 for 20-24 hours. The transfected cells were then dispensed into 96-well plates using 90 μl cell suspension per well containing 2×10^5 cells/ml in Opti-MEM and 1x final concentration of tracer. 90 μl per well of cell suspension without tracer was also dispensed into at least 3 wells as “No tracer control samples” for background correction. Serially diluted test compounds were prepared at 1000× concentration in DMSO and further diluted to 10× concentration in Opti-MEM. 10 μl per well of the serially diluted 10× test compound was added to the 96-well plates containing cells with 1x tracer. Plates were then incubated at 37° C.+5% C02 incubator for 2 hours. Immediately prior to BRET measurements, a 3x solution consisting of 1:166 dilution of Nano-Glo® Substrate plus a 1:500 dilution of Extracellular NanoLuc Inhibitor in Opti-MEM was prepared and 50 μl per well was added to the cells. Donor emission (450 nm) and acceptor emission (610 nm) were measured using PHERAstar (BMG LabTech). For data analysis, the raw BRET ratio was generated and converted to milliBRET units with background correction using the formula: [(Acceptorsample/Donorsample)−(Acceptorno tracer control/Donorno tracer control)]×1000. The mBU data was plotted as a function of compound concentration and IC50s for BRET assay were determined by nonlinear regression analysis of concentration response curves using the GraphPad Prism software.
Fold Selectivity Calculated (IC50 BD1/IC50 BD2).

BRD4 BD1 = target: T2, BRD4 BD1 (Homo sapiens, UniProt O60885); assay: NanoBRET bromodomain assay, BRD4 BD1; assay type: cell-based; conditions: HEK293 cells transfected with NanoLuc-BRD4-BD1
T2 construct: HEK293 cells were transfected using NanoLuc-BRD4-BD1 or NanoLuc-BRD4-BD2 fusion vectors; host or cells: HEK293
Experimental: as §1

| Compound | Fold selectivity BRD4 BD1/BD2 (BRD4 BD2) | IC50 (BRD4 BD2) | IC50 (BRD4 BD1) |
| --- | --- | --- | --- |
| CC#Cc1cn(C)c(=O)cc1-c1cn(C)c(=O)c2[nH]c(-c3cnn(C(C)C)c3)cc12 [Example 57, 4-[2-(1-isopropylpyrazol-4-yl)-6-methyl-7-oxo-1H-pyrrolo[2,3-c]pyridin-4-yl]-1-methyl-5-(prop-1-yn-1-yl)pyridin-2-one] | x (Fold >2 and ≤50) | ≤ 50 nM | 50 to 500 nM |
| Cc1cc(-c2cc3c(-c4cc(=O)n(C)cc4C4CCCC4)cn(C)c(=O)c3[nH]2)n(C)n1 [Example 52, 5-cyclopentyl-4-[2-(2,5-dimethylpyrazol-3-yl)-6-methyl-7-oxo-1H-pyrrolo[2,3-c]pyridin-4-yl]-1-methylpyridin-2-one] | x (Fold >2 and ≤50) | ≤ 50 nM | 50 to 500 nM |
| Cc1cccc(C)c1Oc1cn(C2COC2)c(=O)cc1-c1cn(C)c(=O)c2[nH]c(-c3cnn(C)c3C)cc12 [Example 40, 2-(1,5-dimethyl-1H-pyrazol-4-yl)-4-(5-(2,6-dimethylphenoxy)-1-(oxetan-3-yl)-2-oxo-1,2-dihydropyridin-4-yl)-6-methyl-1,6-dihydro-7H-pyrrolo[2,3-c] pyridin-7-one] | x (Fold >2 and ≤50) | ≤ 50 nM | 50 to 500 nM |
| CC#Cc1cn(C)c(=O)cc1-c1cn(C)c(=O)c2[nH]c(-c3cc(C)nc(C)c3)cc12 [Example 58, 4-[2-(2,6-dimethylpyridin-4-yl)-6-methyl-7-oxo-1H-pyrrolo[2,3-c]pyridin-4-yl]-1-methyl-5-(prop-1-yn-1-yl)pyridin-2-one] | xxx (Fold >200) | ≤ 50 nM | > 1000 nM |
| Cc1cccc(C)c1Oc1cn(C2CNC2)c(=O)cc1-c1cn(C)c(=O)c2[nH]c(-c3cn(C(C)C)nc3C)cc12 [Example 42, 4-(1-(azetidin-3-yl)-5-(2,6-dimethylphenoxy)-2-oxo-1,2-dihydropyridin-4-yl)-2-(1-isopropyl-3-methyl-1H-pyrazol-4-yl)-6-methyl-1,6-dihydro-7H-pyrrolo[2,3-c]pyridin-7-one] | xx (Fold >50 and ≤200) | 50 to 200 nM | > 1000 nM |
| CC(C)n1cc(-c2cc3c(-c4cc(=O)n(C)cc4C4CCCC4)cn(C)c(=O)c3[nH]2)cn1 [Example 53, 4-(5-cyclopentyl-1-methyl-2-oxo-1,2-dihydropyridin-4-yl)-2-(1-isopropyl-1H-pyrazol-4-yl)-6-methyl-1,6-dihydro-7H-pyrrolo[2,3-c]pyridin-7-one] | xx (Fold >50 and ≤200) | ≤ 50 nM | 50 to 500 nM |
| C#Cc1cn(C)c(=O)cc1-c1cn(C)c(=O)c2[nH]c(-c3cnn(C(C)C)c3)cc12 [Example 56, 5-ethynyl-4-[2-(1-isopropylpyrazol-4-yl)-6-methyl-7-oxo-1H-pyrrolo[2,3-c]pyridin-4-yl]-1-methylpyridin-2-one] | x (Fold >2 and ≤50) | ≤ 50 nM | 50 to 500 nM |
| Cn1cc(C2CCCC2)c(-c2cn(C)c(=O)c3[nH]c(-c4ccccc4)cc23)cc1=O [Example 55, 5-cyclopentyl-1-methyl-4-{6-methyl-7-oxo-2-phenyl-1H-pyrrolo[2,3-c]pyridin-4-yl}pyridin-2-one] | x (Fold >2 and ≤50) | ≤ 50 nM | 50 to 500 nM |
| Cc1cc(-c2cc3c(-c4cc(=O)n(C)cc4C4CCCC4)cn(C)c(=O)c3[nH]2)cc(C)n1 [Example 54, 5-cyclopentyl-4-[2-(2,6-dimethylpyridin-4-yl)-6-methyl-7-oxo-1H-pyrrolo[2,3-c]pyridin-4-yl]-1-methylpyridin-2-one] | xx (Fold >50 and ≤200) | ≤ 50 nM | 50 to 500 nM |

Second part, the molecule after the results:

| Fold selectivity BRD4 BD1/BD2 (BRD4 BD2) | IC50 (BRD4 BD2) | IC50 (BRD4 BD1) | Compound |
| --- | --- | --- | --- |
| xxx (Fold >200) | ≤ 50 nM | > 1000 nM | Cc1cccc(C)c1Oc1cn(C)c(=O)cc1-c1cn(C)c(=O)c2[nH]c(-c3ccccc3C#N)cc12 [Example 48, 2-{4-[5-(2,6-dimethylphenoxy)-1-methyl-2-oxopyridin-4-yl]-6-methyl-7-oxo-1H-pyrrolo[2,3-c]pyridin-2-yl}benzonitrile] |
| xx (Fold >50 and ≤200) | 50 to 200 nM | > 1000 nM | Cc1cccc(C)c1Oc1cn(C)c(=O)cc1-c1cn(C)c(=O)c2[nH]c(-c3c(F)cccc3F)cc12 [Example 37, 2-(2,6-difluorophenyl)-4-(5-(2,6-dimethylphenoxy)-1-methyl-2-oxo-1,2-dihydropyridin-4-yl)-6-methyl-1,6-dihydro-7H-pyrrolo[2,3-c] pyridin-7-one] |
| xx (Fold >50 and ≤200) | 50 to 200 nM | > 1000 nM | Cc1cccc(C)c1Oc1cn(C2COC2)c(=O)cc1-c1cn(C)c(=O)c2[nH]c(-c3ccccc3F)cc12 [Example 41, 4-(5-(2,6-dimethylphenoxy)-1-(oxetan-3-yl)-2-oxo-1,2-dihydropyridin-4-yl)-2-(2-fluorophenyl)-6-methyl-1,6-dihydro-7H-pyrrolo[2,3-c] pyridin-7-one] |
| x (Fold >2 and ≤50) | ≤ 50 nM | 500 to 1000 nM | Cc1cc(-c2cc3c(-c4cc(=O)n(C)cc4Oc4c(C)cccc4C)cn(C)c(=O)c3[nH]2)ccn1 [Example 45, 4-(5-(2,6-dimethylphenoxy)-1-methyl-2-oxo-1,2-dihydropyridin-4-yl)-6-methyl-2-(2-methylpyridin-4-yl)-1,6-dihydro-7H-pyrrolo[2,3-c]pyridin-7-one] |
| xx (Fold >50 and ≤200) | 50 to 200 nM | > 1000 nM | Cc1cccc(C)c1Oc1cn(C)c(=O)cc1-c1cn(C)c(=O)c2[nH]c(-c3ncccn3)cc12 [Example 39, 4-(5-(2,6-dimethylphenoxy)-1-methyl-2-oxo-1,2-dihydropyridin-4-yl)-6-methyl-2-(pyrimidin-2-yl)-1,6-dihydro-7H-pyrrolo[2,3-c] pyridin-7-one] |
| xxx (Fold >200) | ≤ 50 nM | > 1000 nM | Cc1cccc(C)c1Oc1cn(C)c(=O)cc1-c1cn(C)c(=O)c2[nH]c(-c3cc(F)ccc3F)cc12 [Example 46, 2-(2,5-difluorophenyl)-4-(5-(2,6-dimethylphenoxy)-1-methyl-2-oxo-1,2-dihydropyridin-4-yl)-6-methyl-1,6-dihydro-7H-pyrrolo[2,3-c]pyridin-7-one] |
| xxx (Fold >200) | ≤ 50 nM | > 1000 nM | Cc1cc(-c2cc3c(-c4cc(=O)n(C)cc4Oc4c(C)cccc4C)cn(C)c(=O)c3[nH]2)ncn1 [Example 38, 4-(5-(2,6-dimethylphenoxy)-1-methyl-2-oxo-1,2-dihydropyridin-4-yl)-6-methyl-2-(6-methylpyrimidin-4-yl)-1,6-dihydro-7H-pyrrolo[2,3-c] pyridin-7-one] |
| xx (Fold >50 and ≤200) | 50 to 200 nM | > 1000 nM | Cc1cccc(C)c1Oc1cn(C)c(=O)cc1-c1cn(C)c(=O)c2[nH]c(-c3ccnnc3)cc12 [Example 27, 4-(5-(2,6-dimethylphenoxy)-1-methyl-2-oxo-1,2-dihydropyridin-4-yl)-6-methyl-2-(pyridazin-4-yl)-1,6-dihydro-7H-pyrrolo[2,3-c] pyridin-7-one] |
